According to patent publication US8569511B2, “Substituted 3-(1H-benzo[d]imidazol-2-yl)-1H-indazole analogs as inhibitors of the PDK1 kinase” (University of Utah Research Foundation, priority 2011, dated 2013):

Experiments:
T47D = assay: Cell viability assay, cancer cell line panel; type: cell-based; details: Homo sapiens, mutation PIK3CA
PDGFRA = PDGFRA (Homo sapiens (Human), UniProt P16234); assay: Kinase profiling, fluorometric assays by Life Technologies; type: biochemical; details: profiling at 500 nM, FIG. 8
Experimental: (§1) The panel comprised 78 distinct protein kinases, and data are shown for a subset of 20 kineases (see FIG. 8). Kinase profiling was performed against a focus panel of kinases relevant to PDK1 signaling and other known oncogenic kinases. The activity profiling as performed at 500 nM and percent inhibition at that concentration was determined for each kinase shown.
(§2) The kinase specificity was measured using fluorometric assays performed by Life Technologies (Grand Island, N.Y.). Assay conditions vary for each kinase and are available from Life Technologies, Grand Island, NY. For example, the assay conditions for PDK1 are as follows. The 2×PDK1/Ser/Thr-07 mixture is prepared in 50 mM Tris pH 8.5, 0.01% BRIJ-35, 10 mM MgCl2, 1 mM EGTA, 0.02% NaN3. The final 10 μL Kinase Reaction consists of 7.36-38.7 ng PDK1 and 2 μM Ser/Thr 07. After the 1 hour kinase reaction incubation, 5 μL of a 1:32768 dilution of Development Reagent A is added.

VEGFR1 = VEGFR1 (Homo sapiens (Human), UniProt P17948); assay: as above; type: biochemical; details: profiling at 500 nM, FIG. 8
Experimental: as §1, §2

VEGFR2 = VEGFR2 (Homo sapiens (Human), UniProt P35968); assay: as above; type: biochemical; details: profiling at 500 nM, FIG. 8
Experimental: as §1, §2

p70S6K = p70S6K (Homo sapiens (Human), UniProt P23443); assay: as above; type: biochemical; details: profiling at 500 nM, FIG. 8
Experimental: as §1, §2

Sequence of p70S6K (P23443 whole entry): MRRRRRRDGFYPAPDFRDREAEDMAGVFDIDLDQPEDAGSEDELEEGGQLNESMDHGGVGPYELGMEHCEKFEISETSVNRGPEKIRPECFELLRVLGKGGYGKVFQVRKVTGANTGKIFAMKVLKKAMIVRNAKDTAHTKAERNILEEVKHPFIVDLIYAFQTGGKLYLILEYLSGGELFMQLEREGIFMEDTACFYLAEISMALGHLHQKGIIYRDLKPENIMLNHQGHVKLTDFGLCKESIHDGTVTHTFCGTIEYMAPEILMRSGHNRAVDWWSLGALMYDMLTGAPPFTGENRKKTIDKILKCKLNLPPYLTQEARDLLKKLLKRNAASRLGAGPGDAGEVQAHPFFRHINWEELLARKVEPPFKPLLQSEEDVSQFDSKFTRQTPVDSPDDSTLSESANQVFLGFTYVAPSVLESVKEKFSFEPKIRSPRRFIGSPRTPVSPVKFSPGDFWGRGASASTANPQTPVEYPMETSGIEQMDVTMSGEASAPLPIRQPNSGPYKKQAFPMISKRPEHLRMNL
Sequence of VEGFR1 (P17948 27-1338): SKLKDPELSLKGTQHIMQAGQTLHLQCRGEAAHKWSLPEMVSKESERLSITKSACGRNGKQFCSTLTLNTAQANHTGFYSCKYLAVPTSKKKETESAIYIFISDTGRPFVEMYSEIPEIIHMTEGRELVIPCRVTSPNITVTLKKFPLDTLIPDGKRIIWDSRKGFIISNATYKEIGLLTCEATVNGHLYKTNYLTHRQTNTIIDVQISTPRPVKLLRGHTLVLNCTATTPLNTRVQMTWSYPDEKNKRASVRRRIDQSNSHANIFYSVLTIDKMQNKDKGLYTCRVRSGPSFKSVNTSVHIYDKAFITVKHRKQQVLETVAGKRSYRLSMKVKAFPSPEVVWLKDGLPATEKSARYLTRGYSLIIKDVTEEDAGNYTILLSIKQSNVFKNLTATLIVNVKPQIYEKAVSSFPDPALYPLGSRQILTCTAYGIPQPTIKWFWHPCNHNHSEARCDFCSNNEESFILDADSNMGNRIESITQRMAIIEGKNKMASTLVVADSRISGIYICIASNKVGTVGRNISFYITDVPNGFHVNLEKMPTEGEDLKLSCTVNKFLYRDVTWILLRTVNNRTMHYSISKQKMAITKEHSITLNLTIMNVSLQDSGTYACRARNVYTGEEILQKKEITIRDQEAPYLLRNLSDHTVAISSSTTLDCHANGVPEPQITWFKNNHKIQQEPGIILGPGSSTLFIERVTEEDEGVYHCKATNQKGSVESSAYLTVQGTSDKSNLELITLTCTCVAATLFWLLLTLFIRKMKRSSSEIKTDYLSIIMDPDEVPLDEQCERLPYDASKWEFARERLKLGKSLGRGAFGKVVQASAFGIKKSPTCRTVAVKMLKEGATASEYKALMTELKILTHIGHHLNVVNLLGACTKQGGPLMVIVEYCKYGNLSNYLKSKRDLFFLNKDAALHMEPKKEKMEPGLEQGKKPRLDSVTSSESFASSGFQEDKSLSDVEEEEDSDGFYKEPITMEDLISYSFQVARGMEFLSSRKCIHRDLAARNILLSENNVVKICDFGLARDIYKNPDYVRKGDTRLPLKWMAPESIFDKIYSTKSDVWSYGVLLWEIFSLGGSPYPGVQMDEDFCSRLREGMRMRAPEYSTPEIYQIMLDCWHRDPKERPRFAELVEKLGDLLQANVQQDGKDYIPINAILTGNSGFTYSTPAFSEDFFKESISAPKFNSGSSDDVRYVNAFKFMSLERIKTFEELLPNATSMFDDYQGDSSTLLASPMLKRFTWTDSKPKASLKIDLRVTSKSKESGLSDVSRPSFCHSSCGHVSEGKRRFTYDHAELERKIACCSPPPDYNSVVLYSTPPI
Sequence of PDGFRA (P16234 24-1089): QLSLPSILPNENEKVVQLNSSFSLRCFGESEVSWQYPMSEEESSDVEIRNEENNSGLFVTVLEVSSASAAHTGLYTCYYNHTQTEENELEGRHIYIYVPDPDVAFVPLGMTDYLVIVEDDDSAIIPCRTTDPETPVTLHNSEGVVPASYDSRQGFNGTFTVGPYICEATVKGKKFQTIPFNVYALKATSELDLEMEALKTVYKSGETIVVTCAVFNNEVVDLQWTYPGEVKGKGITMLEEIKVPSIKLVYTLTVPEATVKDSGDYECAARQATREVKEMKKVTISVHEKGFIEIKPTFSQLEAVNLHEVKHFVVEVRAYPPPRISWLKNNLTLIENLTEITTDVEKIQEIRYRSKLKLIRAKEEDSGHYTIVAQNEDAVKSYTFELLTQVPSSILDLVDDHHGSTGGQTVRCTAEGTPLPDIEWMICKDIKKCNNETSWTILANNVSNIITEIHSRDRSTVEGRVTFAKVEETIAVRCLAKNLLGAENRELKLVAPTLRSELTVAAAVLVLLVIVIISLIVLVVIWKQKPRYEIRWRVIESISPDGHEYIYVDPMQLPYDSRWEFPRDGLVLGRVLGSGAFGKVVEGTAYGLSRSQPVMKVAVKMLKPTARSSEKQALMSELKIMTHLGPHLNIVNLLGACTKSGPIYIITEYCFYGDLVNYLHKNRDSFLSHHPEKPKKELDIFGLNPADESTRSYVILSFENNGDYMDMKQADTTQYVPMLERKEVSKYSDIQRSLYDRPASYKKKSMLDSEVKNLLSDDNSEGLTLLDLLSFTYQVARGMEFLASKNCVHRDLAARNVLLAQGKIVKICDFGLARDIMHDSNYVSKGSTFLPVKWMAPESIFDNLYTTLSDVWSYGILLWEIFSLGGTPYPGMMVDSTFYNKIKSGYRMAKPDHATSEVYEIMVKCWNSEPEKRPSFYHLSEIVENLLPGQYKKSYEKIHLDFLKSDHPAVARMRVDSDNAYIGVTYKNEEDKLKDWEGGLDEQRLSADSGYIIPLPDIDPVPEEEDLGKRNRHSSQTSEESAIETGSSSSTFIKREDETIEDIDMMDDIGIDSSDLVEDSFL
Sequence of VEGFR2 (P35968 20-1356): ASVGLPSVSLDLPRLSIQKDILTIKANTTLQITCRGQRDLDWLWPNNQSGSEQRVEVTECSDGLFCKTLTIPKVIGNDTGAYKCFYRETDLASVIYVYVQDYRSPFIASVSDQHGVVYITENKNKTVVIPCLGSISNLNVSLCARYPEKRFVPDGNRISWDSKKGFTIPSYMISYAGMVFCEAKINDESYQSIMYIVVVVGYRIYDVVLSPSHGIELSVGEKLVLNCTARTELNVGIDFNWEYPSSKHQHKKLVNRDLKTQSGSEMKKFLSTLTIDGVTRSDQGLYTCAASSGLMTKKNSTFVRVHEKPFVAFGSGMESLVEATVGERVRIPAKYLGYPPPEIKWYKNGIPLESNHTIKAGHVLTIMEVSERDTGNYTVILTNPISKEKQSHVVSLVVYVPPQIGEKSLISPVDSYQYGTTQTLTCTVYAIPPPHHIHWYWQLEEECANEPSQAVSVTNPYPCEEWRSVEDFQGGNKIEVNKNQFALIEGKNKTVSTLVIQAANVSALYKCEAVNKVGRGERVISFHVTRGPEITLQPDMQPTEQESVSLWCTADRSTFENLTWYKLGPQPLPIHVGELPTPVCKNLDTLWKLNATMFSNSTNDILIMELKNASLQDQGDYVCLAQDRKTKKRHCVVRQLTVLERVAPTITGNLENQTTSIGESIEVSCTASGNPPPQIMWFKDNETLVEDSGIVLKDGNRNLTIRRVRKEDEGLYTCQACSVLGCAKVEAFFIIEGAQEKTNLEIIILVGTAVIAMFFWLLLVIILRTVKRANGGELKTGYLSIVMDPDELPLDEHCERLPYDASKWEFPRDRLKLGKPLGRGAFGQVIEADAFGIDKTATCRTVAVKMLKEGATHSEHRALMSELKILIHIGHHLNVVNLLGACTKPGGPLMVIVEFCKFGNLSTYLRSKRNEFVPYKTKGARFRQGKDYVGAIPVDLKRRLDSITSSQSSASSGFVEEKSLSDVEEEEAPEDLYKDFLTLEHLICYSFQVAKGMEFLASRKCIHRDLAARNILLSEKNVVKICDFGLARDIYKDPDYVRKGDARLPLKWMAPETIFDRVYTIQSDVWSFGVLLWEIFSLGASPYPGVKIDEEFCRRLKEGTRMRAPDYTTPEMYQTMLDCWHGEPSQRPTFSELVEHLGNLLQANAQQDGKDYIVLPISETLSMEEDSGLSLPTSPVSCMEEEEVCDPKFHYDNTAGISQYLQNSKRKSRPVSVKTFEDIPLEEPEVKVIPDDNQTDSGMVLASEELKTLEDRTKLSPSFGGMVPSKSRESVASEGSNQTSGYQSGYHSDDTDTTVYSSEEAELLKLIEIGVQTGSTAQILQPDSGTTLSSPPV

IC50 (T47D): 12.8 µM | Kinase profiling activity against PDGFRA (in words) (PDGFRA): relatively potent activity | Kinase profiling activity against VEGFR1 (in words) (VEGFR1): relatively potent activity | Kinase profiling activity against VEGFR2 (in words) (VEGFR2): relatively potent activity | Kinase profiling activity against p70S6K (in words) (p70S6K): potent activity
SMILES: O=C(Nc1ccc2[nH]nc(-c3nc4ccc(N5CCOCC5)cc4[nH]3)c2c1)C1CC1(F)F (centres unmarked) [Compound 1, 2,2-difluoro-N-(3-(5-morpholino-1H-benzo[d]imidazol-2-yl)-1H-indazol-5-yl)cyclopropanecarboxamide]
